According to US9206241B2, “Modified prokaryotic ubiquitin-like protein and methods of use thereof” (priority 2012, dated 2015):

Key:
lysates of E. coli = assay: Hydrolysis of substrate in E. coli lysates; type: biochemical
[1] = molecular target: Dop (deamidase of Pup), Dop-His6 (Mycobacterium tuberculosis, UniProt P9WNU9); details: for Km / kcat: Dop kinetics with synthetic substrate, n.a. = no activity
Dop (deamidase of Pup), Dop-His6, sequence (P9WNU9 whole entry): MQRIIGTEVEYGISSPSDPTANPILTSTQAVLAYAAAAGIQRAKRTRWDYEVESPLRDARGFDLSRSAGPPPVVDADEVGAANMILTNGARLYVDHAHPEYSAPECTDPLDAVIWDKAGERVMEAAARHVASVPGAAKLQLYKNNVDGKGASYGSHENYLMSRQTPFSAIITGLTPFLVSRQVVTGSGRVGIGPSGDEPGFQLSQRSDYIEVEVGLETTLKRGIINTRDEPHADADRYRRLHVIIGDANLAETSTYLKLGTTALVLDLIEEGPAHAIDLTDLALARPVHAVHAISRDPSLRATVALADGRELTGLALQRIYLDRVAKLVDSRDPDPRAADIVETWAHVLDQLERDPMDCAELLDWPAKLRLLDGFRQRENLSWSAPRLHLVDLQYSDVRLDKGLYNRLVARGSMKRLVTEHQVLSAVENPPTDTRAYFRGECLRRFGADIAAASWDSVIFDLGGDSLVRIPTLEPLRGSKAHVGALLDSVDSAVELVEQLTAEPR
Source text: SoftMax Pro (Molecular Devices) was used to measure the data and GraphPad Prism was used to fit the kinetic data.

## MAQEQTKRGGGGGDDDDIAGSTAAGQERREKLTEETDDLLDEIDDV LEENAEDFVRAYVQKGG-Glu(AMC) [1a]
Lysates of E. coli
  hydrolysis of substrate in lysate: could not hydrolyze
[1]
  Km: 0.65 ± 0.07 µM
  kcat: 0.01 ± 0.00033 s⁻¹
[1]; increase in fluorescence over time
  hydrolytic activity of Dop on the substrate (cleavage of AMC): showed hydrolytic activity

## EETDDLLDEIDDVLEENAEDFVRAYVQKGG-Glu(AMC) [1b]
[1]
  Km: 0.75 ± 0.08 µM
  kcat: 0.0113 ± 0.00033 s⁻¹
